Laboratory results as given in patent US10952436B2, “Microbiocidal quinoline (thio)carboxamide derivatives” (SYNGENTA PARTICIPATIONS AG, priority 2017, dated 2021).

Assays:
[1] = test system: Glomerella lagenarium (Colletotrichum lagenarium); test: Glomerella lagenarium (Colletotrichum lagenarium)/Liquid Culture (Anthracnose); type: cell-based; settings: Colletotrichum orbiculare; 200 ppm; liquid culture, compared to untreated control, 3-4 days after application; read-out: control of Glomerella lagenarium
Fusarium culmorum [2] = test: microbe, parasite or virus in culture; type: cell-based; settings: read-out: control of Fusarium culmorum
[3] = test system: Botryotinia fuckeliana (Botrytis cinerea); test: Botryotinia fuckeliana (Botrytis cinerea)/Liquid Culture (Gray Mould); type: cell-based; settings: 200 ppm, liquid culture, compared to untreated control, 3-4 days after application, read-out: control of Botryotinia fuckeliana
[4] = test system: Magnaporthe grisea (Pyricularia oryzae); test: microbe, parasite or virus in culture; type: cell-based; settings: read-out: control of Magnaporthe grisea
[5] = test system: Monographella nivalis (Microdochium nivale); test: Monographella nivalis (Microdochium nivale)/Liquid Culture (Foot Rot Cereals); type: cell-based; settings: 200 ppm, liquid culture, compared to untreated control, 4-5 days after application, read-out: control of Monographella nivalis
Sclerotinia sclerotiorum = test: Sclerotinia sclerotiorum/Liquid Culture (Cottony Rot); settings: read-out: control of Sclerotinia sclerotiorum
Procedure: Mycelia fragments of a newly grown liquid culture of the fungus are directly mixed into nutrient broth (Vogels broth). After placing a (DMSO) solution of test compound into a microtiter plate (96-well format) the nutrient broth containing the fungal material is added. The test plates are incubated at 24° C. and the inhibition of growth is determined photometrically 3-4 days after application.

[6] = test system: Magnaporthe grisea (Pyricularia oryzae); test: whole plant or invertebrate; type: in vivo; settings: foliar, read-out: control of Magnaporthe grisea
Fusarium culmorum [7] = test: whole plant or invertebrate; type: in vivo; settings: in Triticum aestivum, read-out: control of Fusarium culmorum
Gaeumannomyces graminis = test: Gaeumannomyces graminis/Liquid Culture (Take-all of Cereals); type: cell-based; settings: 200 ppm, liquid culture, compared to untreated control, 4-5 days after application, read-out: control of Gaeumannomyces graminis

Question: What does the source list for Cc1nc2c(Cl)cccc2cc1NC(=O)C(C)(Cc1ccccc1)CC(C)C (stereo not drawn) [Compound E-13, 2-benzyl-N-(8-chloro-2-methyl-3-quinolyl)-2,4-dimethyl-pentanamide]?
Answer: inhibition of growth at 200 ppm [1]: ≥ 80%; inhibition of growth at 200 ppm (Fusarium culmorum [2]): ≥ 80%; inhibition of growth at 200 ppm [3]: ≥ 80%; melting point: 99 to 100 °C; inhibition of growth at 200 ppm [4]: ≥ 80%; inhibition of growth at 200 ppm [5]: ≥ 80%; inhibition of growth at 20 ppm (Sclerotinia sclerotiorum): ≥ 80%; pest or weed control at 200 ppm [6]: ≥ 80%

Question: Which results are given for Cc1nc2c(Cl)cccc2cc1NC(=O)C(C)(Cc1ccccc1)CC(F)(F)F (stereo not drawn) [Compound E-17, 2-benzyl-N-(8-chloro-2-methyl-3-quinolyl)-4,4,4-trifluoro-2-methyl-butanamide]?
Answer: inhibition of growth at 200 ppm [1]: ≥ 80%; inhibition of growth at 200 ppm (Fusarium culmorum [2]): ≥ 80%; inhibition of growth at 200 ppm [3]: ≥ 80%; melting point: 47 to 50 °C; inhibition of growth at 200 ppm [4]: ≥ 80%; inhibition of growth at 200 ppm [5]: ≥ 80%; inhibition of growth at 20 ppm (Sclerotinia sclerotiorum): ≥ 80%; pest or weed control at 200 ppm [6]: ≥ 80%

Question: Which results are given for C=C(Cl)CC(C)(Cc1ccccc1)C(=O)Nc1cnc2c(F)cccc2c1C (stereo not drawn) [Compound E-20, 2-benzyl-4-chloro-N-(8-fluoro-4-methyl-3-quinolyl)-2-methyl-pent-4-enamide]?
Answer: inhibition of growth at 200 ppm [1]: ≥ 80%; inhibition of growth at 200 ppm (Fusarium culmorum [2]): ≥ 80%; pest or weed control at 200 ppm (Fusarium culmorum [7]): ≥ 80%; inhibition of growth at 200 ppm [3]: ≥ 80%; melting point: 124 to 126 °C; inhibition of growth at 200 ppm [4]: ≥ 80%; inhibition of growth at 200 ppm [5]: ≥ 80%; inhibition of growth at 20 ppm (Sclerotinia sclerotiorum): ≥ 80%; pest or weed control at 200 ppm [6]: ≥ 80%

Question: Which inhibition of growth at 200 ppm [1] does the source give for C=C(Cl)CC(C)(Cc1ccccc1)C(=O)Nc1cc2cccc(F)c2nc1C (stereo not drawn) [Compound E-21, 2-benzyl-4-chloro-N-(8-fluoro-2-methyl-3-quinolyl)-2-methyl-pent-4-enamide] here?
Answer: ≥ 80%

Question: What about the inhibition of growth at 200 ppm (Fusarium culmorum [2]) of the same molecule?
Answer: ≥ 80%

Question: And the pest or weed control at 200 ppm (Fusarium culmorum [7])?
Answer: ≥ 80%

Question: What about the inhibition of growth at 200 ppm [3] of the same molecule?
Answer: ≥ 80%

Question: What about the melting point of the same molecule?
Answer: 121 to 123 °C

Question: What about the inhibition of growth at 200 ppm [4] of the same molecule?
Answer: ≥ 80%

Question: And the inhibition of growth at 20 ppm (Sclerotinia sclerotiorum)?
Answer: ≥ 80%

Question: And the pest or weed control at 200 ppm [6]?
Answer: ≥ 80%

Question: Which inhibition of growth at 200 ppm [1] does the source give for Cc1c(NC(=O)C(Cc2ccccc2)CC(F)(F)F)cnc2c(F)cccc12 (stereo not drawn) [Compound E-45, 2-benzyl-4,4,4-trifluoro-N-(8-fluoro-4-methyl-3-quinolyl)butanamide] here?
Answer: ≥ 80%

Question: What about the inhibition of growth at 200 ppm (Fusarium culmorum [2]) of the same molecule?
Answer: ≥ 80%

Question: And the pest or weed control at 200 ppm (Fusarium culmorum [7])?
Answer: ≥ 80%

Question: And the inhibition of growth at 200 ppm [3]?
Answer: ≥ 80%

Question: What about the melting point of the same molecule?
Answer: 165 to 167 °C

Question: What about the inhibition of growth at 200 ppm [4] of the same molecule?
Answer: ≥ 80%

Question: What about the inhibition of growth at 20 ppm (Sclerotinia sclerotiorum) of the same molecule?
Answer: ≥ 80%

Question: What about the pest or weed control at 200 ppm [6] of the same molecule?
Answer: ≥ 80%

Question: What does the source list for Cc1c(NC(=O)C(C)(Cc2ccccc2)CC(F)(F)F)cnc2c(F)cccc12 (stereo not drawn) [Compound E-50, 2-benzyl-4,4,4-trifluoro-N-(8-fluoro-4-methyl-3-quinolyl)-2-methyl-butanamide]?
Answer: inhibition of growth at 200 ppm [1]: ≥ 80%; inhibition of growth at 200 ppm (Fusarium culmorum [2]): ≥ 80%; pest or weed control at 200 ppm (Fusarium culmorum [7]): ≥ 80%; inhibition of growth at 200 ppm [3]: ≥ 80%; melting point: 106 to 109 °C; inhibition of growth at 200 ppm [4]: ≥ 80%; inhibition of growth at 200 ppm [5]: ≥ 80%; inhibition of growth at 20 ppm (Sclerotinia sclerotiorum): ≥ 80%; pest or weed control at 200 ppm [6]: ≥ 80%

Question: Which inhibition of growth at 200 ppm [1] does the source give for C=C(C)CC(C)(Cc1ccccc1)C(=O)Nc1cc2cccc(F)c2nc1C (stereo not drawn) [Compound E-66, 2-benzyl-N-(8-fluoro-2-methyl-3-quinolyl)-2,4-dimethyl-pent-4-enamide] here?
Answer: ≥ 80%

Question: And the inhibition of growth at 200 ppm (Fusarium culmorum [2])?
Answer: ≥ 80%

Question: And the pest or weed control at 200 ppm (Fusarium culmorum [7])?
Answer: ≥ 80%

Question: What about the inhibition of growth at 200 ppm [3] of the same molecule?
Answer: ≥ 80%

Question: And the inhibition of growth at 200 ppm (Gaeumannomyces graminis)?
Answer: ≥ 80%

Question: What about the inhibition of growth at 200 ppm [4] of the same molecule?
Answer: ≥ 80%

Question: What about the inhibition of growth at 200 ppm [5] of the same molecule?
Answer: ≥ 80%
